Laboratory results as given in PMC10810714, “Antiretroviral Drug Exposure and Response in Obese and Morbidly Obese People With Human Immunodeficiency Virus (HIV): A Study Combining Modelling and Swiss HIV Cohort Data” (Clinical Infectious Diseases: An Official Publication of …, 2023).

Columns and labels:
[1] = Observed pharmacokinetics of antiretrovirals in nonobese and obese individuals (SHCS therapeutic drug monitoring data and literature studies, noncompartmental analysis)
From the text: (§1) We took several steps to analyse the impact of obesity on the ARVs exposure and response. First, we implemented our in-house PBPK model with our recently published virtual White obese population to simulate the pharmacokinetics of ARVs in nonobese and obese individuals. Next, we verified the simulations against the TDM data collected during the follow-up visits of the SHCS (multiple drug levels per individual were allowed [more information on the SHCS in the homonymous section in the Supplementary Material]). We then applied the verified model to extrapolate the pharmacokinetics across different obesity classes. Finally, the clinical relevance of obesity-related changes on drug response was evaluated by analyzing HIV viral load and the corresponding TDM values in obese and nonobese individuals in the SHCS.
(§2) All ARV drug models, except for doravirine (Supplementary Table 1), were previously developed and verified to predict the pharmacokinetics in healthy and elderly PWH [6, 12]. […] The TDM data were excluded if the participant’s age was younger than 20 or older than 50 years to avoid the age-related confounding effect on the pharmacokinetics, if a nonstandard ARV dosage was used, and if concurrent medications with inhibitory or inducing effects were used. The pharmacokinetic parameters including peak plasma concentration (Cmax), area under the curve to time t (AUCt), and trough concentration (Cτ) were derived from the TDM data using noncompartmental analysis.
(§3) A literature search was also performed to identify pharmacokinetic studies with ARVs conducted in obese and nonobese individuals. Data on the study design, characteristics of the participants, and pharmacokinetic results were collected. […] Available concentration-time profiles were digitalized using GetData Graph Digitizer V.2.26. The virtual trials were conducted by matching the participants’ demographics (eg, age, proportion of females, and BMI) and the ARV dosing regimen (Supplementary Table 2). The models were considered verified if the simulations were within 2-fold of observed data.
The Swiss HIV Cohort Study (SHCS) is an ongoing, nationwide, multicenter, clinic-based prospective cohort study in Switzerland with continuous enrollment and follow-up (twice a year) of people with HIV (PWH). Socio-demographic, clinical and laboratory data are recorded in detail. […] The collection of therapeutic drug monitoring (TDM) data in the SHCS database was initiated in 1998. All available TDM data for each evaluated antiretroviral drug were extracted from the SHCS database representing 6210 and 575 data points for the verification of the simulations in non-obese and obese individuals, respectively.

[2] = PBPK model virtual trials matched to the observed studies (model verification, nonobese vs obese); design: species or system human
From the text: as §1, §2, §3

HIV viral load = assay: Drug response in obese versus nonobese participants in the SHCS (concentration below efficacy threshold and viral load >50 copies/mL)
Experimental: The viral load was analyzed in conjunction with the TDM data to evaluate whether a decrease in ARV exposure in obese PWH is associated with a viral load of more than 50 copies/mL (the viral load measured on the date of the TDM assessment was considered for this evaluation).

CYP3A4 = assay: Doravirine PBPK model parameter: CYP3A4 intrinsic clearance; assay type: in vitro ADME; settings: Retrograde calculation
From the text: Supplementary Table 1. Doravirine PBPK model parameters.

[3] = nonobese, standard oral dose at steady state; GM (mean for etravirine, emtricitabine, tenofovir); literature studies only, ref Supplementary Table 2 [9-16, 21-24]; cited from earlier work
[4] = design: method as in earlier work; settings: PBPK model parameter, supplement reference list; cited from earlier work
[5] = design: method as in earlier work; settings: PBPK model parameter, supplement reference list; cited from earlier work; remark: listed apart in the source
[6] = clinical study; cited from earlier work

Which “Cτ, observed, obese individuals” value ([1]; obese (BMI >=30, range per drug), standard oral dose at steady state, GM (mean for etravirine), SHCS TDM data with or without literature data) does the source give for Cn1c(Cn2ccc(C(F)(F)F)c(Oc3cc(Cl)cc(C#N)c3)c2=O)n[nH]c1=O [Doravirine, doravirine] here?
The value was 513 ng/mL.

And the “Cτ, Ratio Obese/Nonobese, Observed” value ([1]; observed data)?
Its value is 1.27.

And the “Cτ, Ratio (Predicted Ratio Obese/Nonobese)/(Observed Ratio Obese/Nonobese)” value [2]?
Its value is 0.79.

What about the “AUCt, Ratio Predicted/Observed, Nonobese” value ([2]; nonobese individuals) of the same compound?
The value was 1.00.

What about the “Cmax, Ratio Predicted/Observed, Nonobese” value ([2]; nonobese individuals) of the same compound?
Its value is 1.10.

And the “Cτ, Ratio Predicted/Observed, Nonobese” value ([2]; nonobese individuals)?
Its value is 0.86.

And the “t1/2, Ratio Predicted/Observed, Nonobese” value ([2]; nonobese individuals)?
Its value is 1.03.

What about the “Cτ, Ratio Predicted/Observed, Obese” value ([2]; obese individuals) of the same compound?
Its value is 0.68.

And the “Predictions within x-fold of observed clinical data” value ([2]; pharmacokinetic parameters in obese and nonobese individuals, 1.25-fold 'for the most part')?
Its value is no more than 1.25 fold.

And the “% PWH with concentration below efficacy threshold” value (HIV viral load; BMI 18.5–30 kg/m^2)?
The value was 0%.

What about the “% PWH with virological failure amongst those with concentration below efficacy threshold” value (HIV viral load; BMI 18.5–30 kg/m^2, viral load above 50 copies/mL) of the same compound?
Its value is 0%.

What about the “% PWH with concentration below efficacy threshold” value (HIV viral load; BMI >30 kg/m^2) of the same compound?
Its value is 25%.

What about the “% PWH with virological failure amongst those with concentration below efficacy threshold” value (HIV viral load; BMI >30 kg/m^2, viral load above 50 copies/mL) of the same compound?
The value was 0%.

What about the “CYP3A4 CLint (intrinsic clearance)” value (CYP3A4) of the same compound?
Its value is 0.032 µl/min/pmol enzyme.

What about the “AUCt, observed, nonobese individuals” value [3] of the same compound?
Its value is 17 498 ng*h/mL.

And the “Cmax, observed, nonobese individuals” value [3]?
The value was 1226 ng/mL.

What about the “Cτ, observed, nonobese individuals” value [3] of the same compound?
The value was 404 ng/mL.

What about the “t1/2, observed, nonobese individuals” value [3] of the same compound?
Its value is 13.5 h.

And the drug type [4]?
Its drug type is “Monoprotic base”.

What about the “log P (octanol-water partition coefficient)” value [4] of the same compound?
Its value is 3.0.

And the pKa1 [4]?
The pKa1 was 9.5.

What about the Apparent permeability [5] of the same compound?
Its Apparent permeability is 25 10^-6 cm/sec.

What about the “BP (blood-plasma-ratio)” value [5] of the same compound?
Its value is 1.0.

And the “CLrenal (renal clearance)” value [5]?
The value was 0.566 L/h.

What about the “fup (fraction unbound in plasma)” value [5] of the same compound?
The value was 0.24.

And the “Increase in Cτ in obese compared with nonobese PWH” value [6]?
The value was 22%.
